# Key:
# Format in all cases: in vivo
# [1] = tested on: ryegrass, Italian (Italian ryegrass, Lolium multiflorum); experiment: Test A postemergence; settings: postemergence; for Ryegrass, Italian plant response rating: 125 g ai/ha, visual injury rating on 0 to 100 scale (0 no effect, 100 complete control), approx. 10 d; for Plant response rating, Ryegrass, Italian: 500 g ai/ha, 0 to 100 scale, 0 no effect, 100 complete control
# Procedure, shortened: (§1)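 Ratings of 0 (no effect) to 100 (complete control) come from visual comparison with untreated controls roughly 10 d after treatment. Test chemicals, formulated in a non-phytotoxic solvent mixture with surfactant, were applied either as a preemergence directed soil spray on seeded soil or postemergence to one- to two-leaf plants 2 to 10 cm tall.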
# [2] = tested on: Galium (catchweed bedstraw, Galium aparine); experiment: Test A postemergence; settings: postemergence; for Galium plant response rating: 125 g ai/ha, visual injury rating on 0 to 100 scale (0 no effect, 100 complete control), approx. 10 d; for Plant response rating, Galium: 500 g ai/ha, 0 to 100 scale, 0 no effect, 100 complete control
# Procedure, shortened: as §1
# [3] = tested on: wheat (Triticum aestivum); experiment: Test A postemergence; settings: postemergence; for Wheat plant response rating: 125 g ai/ha, visual injury rating on 0 to 100 scale (0 no effect, 100 complete control), approx. 10 d; for Plant response rating, Wheat: 500 g ai/ha, 0 to 100 scale, 0 no effect, 100 complete control
# Procedure, shortened: as §1
# corn (Zea mays) = experiment: Test A postemergence; settings: postemergence; for Corn plant response rating: 125 g ai/ha, visual injury rating on 0 to 100 scale (0 no effect, 100 complete control), approx. 10 d; for Plant response rating, Corn: 500 g ai/ha, 0 to 100 scale, 0 no effect, 100 complete control
# Procedure, shortened: as §1
# [4] = tested on: pigweed (Amaranthus retroflexus); experiment: Test A postemergence; settings: postemergence; for Pigweed plant response rating: 125 g ai/ha, visual injury rating on 0 to 100 scale (0 no effect, 100 complete control), approx. 10 d; for Plant response rating, Pigweed: 500 g ai/ha, 0 to 100 scale, 0 no effect, 100 complete control
# Procedure, shortened: as §1
# [5] = tested on: barnyardgrass (Echinochloa crus-galli); experiment: Test A postemergence; settings: postemergence; for Barnyardgrass plant response rating: 125 g ai/ha, visual injury rating on 0 to 100 scale (0 no effect, 100 complete control), approx. 10 d; for Plant response rating, Barnyardgrass: 500 g ai/ha, 0 to 100 scale, 0 no effect, 100 complete control
# Procedure, shortened: as §1
# [6] = tested on: blackgrass (Alopecurus myosuroides); experiment: Test A postemergence; settings: postemergence; for Blackgrass plant response rating: 125 g ai/ha, visual injury rating on 0 to 100 scale (0 no effect, 100 complete control), approx. 10 d; for Plant response rating, Blackgrass: 500 g ai/ha, 0 to 100 scale, 0 no effect, 100 complete control
# Procedure, shortened: as §1
# Kochia (Kochia scoparia) [7] = experiment: Test A postemergence; settings: postemergence; for Kochia plant response rating: 125 g ai/ha, visual injury rating on 0 to 100 scale (0 no effect, 100 complete control), approx. 10 d; for Plant response rating, Kochia: 500 g ai/ha, 0 to 100 scale, 0 no effect, 100 complete control
# Procedure, shortened: as §1
# [8] = tested on: ragweed (common ragweed, Ambrosia elatior); experiment: Test A postemergence; settings: postemergence; for Ragweed plant response rating: 125 g ai/ha, visual injury rating on 0 to 100 scale (0 no effect, 100 complete control), approx. 10 d; for Plant response rating, Ragweed: 500 g ai/ha, 0 to 100 scale, 0 no effect, 100 complete control
# Procedure, shortened: as §1
# [9] = tested on: giant foxtail (Setaria faberii); experiment: Test A postemergence; settings: postemergence; for Foxtail, Giant plant response rating: 125 g ai/ha, visual injury rating on 0 to 100 scale (0 no effect, 100 complete control), approx. 10 d; for Plant response rating, Foxtail, Giant: 500 g ai/ha, 0 to 100 scale, 0 no effect, 100 complete control
# Procedure, shortened: as §1
# rice (Oryra sativa) = experiment: Test B flooded paddy test; settings: Flood, 250 g ai/ha; 0 to 100 scale where 0 is no effect and 100 is complete control; 13 to 15 d
# Procedure, shortened: (§2)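 Compound goes directly into floodwater once pots are flooded 3 cm above soil, targeting plants at two leaves; the water depth is then held for the test duration. Plants sit 13–15 d in a greenhouse and are rated visually, 100 denoting complete control.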
# [10] = tested on: sedge, umbrella (small-flower umbrella sedge, Cyperus difformis); experiment: Test B flooded paddy test; settings: Flood, 250 g ai/ha; 0 to 100 scale where 0 is no effect and 100 is complete control; 13 to 15 d
# Procedure, shortened: as §2
# [11] = tested on: barnyardgrass (Echinochloa crus-galli); experiment: Test B flooded paddy test; settings: Flood, 250 g ai/ha; 0 to 100 scale where 0 is no effect and 100 is complete control; 13 to 15 d
# Procedure, shortened: as §2
# [12] = tested on: ducksalad (Heteranthera limosa); experiment: Test B flooded paddy test; settings: Flood, 250 g ai/ha; 0 to 100 scale where 0 is no effect and 100 is complete control; 13 to 15 d
# Procedure, shortened: as §2
# [13] = tested on: ryegrass, Italian (Italian ryegrass, Lolium multiflorum); experiment: Test A preemergence; settings: for Plant response rating, Ryegrass, Italian: 125 g ai/ha, preemergence, 0 to 100 scale (0 no effect, 100 complete control); for Ryegrass, Italian plant response rating (0 to 100 scale, 0 is no effect, 100 is complete control): Preemergence, 500 g ai/ha, visual injury approx. 10 d
# Procedure, shortened: as §1
# [14] = tested on: pigweed (Amaranthus retroflexus); experiment: Test A preemergence; settings: for Plant response rating, Pigweed: 125 g ai/ha, preemergence, 0 to 100 scale (0 no effect, 100 complete control); for Pigweed plant response rating (0 to 100 scale, 0 is no effect, 100 is complete control): Preemergence, 500 g ai/ha, visual injury approx. 10 d
# [15] = tested on: barnyardgrass (Echinochloa crus-galli); experiment: Test A preemergence; settings: for Plant response rating, Barnyardgrass: 125 g ai/ha, preemergence, 0 to 100 scale (0 no effect, 100 complete control); for Barnyardgrass plant response rating (0 to 100 scale, 0 is no effect, 100 is complete control): Preemergence, 500 g ai/ha, visual injury approx. 10 d
# Procedure, shortened: as §1
# Kochia (Kochia scoparia) [16] = experiment: Test A preemergence; settings: for Plant response rating, Kochia: 125 g ai/ha, preemergence, 0 to 100 scale (0 no effect, 100 complete control); for Kochia plant response rating (0 to 100 scale, 0 is no effect, 100 is complete control): Preemergence, 500 g ai/ha, visual injury approx. 10 d
# Procedure, shortened: as §1
# [17] = tested on: ragweed (common ragweed, Ambrosia elatior); experiment: Test A preemergence; settings: for Plant response rating, Ragweed: 125 g ai/ha, preemergence, 0 to 100 scale (0 no effect, 100 complete control); for Ragweed plant response rating (0 to 100 scale, 0 is no effect, 100 is complete control): Preemergence, 500 g ai/ha, visual injury approx. 10 d
# Procedure, shortened: as §1
# [18] = tested on: giant foxtail (Setaria faberii); experiment: Test A preemergence; settings: for Plant response rating, Foxtail, Giant: 125 g ai/ha, preemergence, 0 to 100 scale (0 no effect, 100 complete control); for Foxtail, Giant plant response rating (0 to 100 scale, 0 is no effect, 100 is complete control): Preemergence, 500 g ai/ha, visual injury approx. 10 d
# Procedure, shortened: as §1
Compound,"Ryegrass, Italian plant response rating [1]","Plant response rating, Ryegrass, Italian [1]",Galium plant response rating [2],"Plant response rating, Galium [2]",Wheat plant response rating [3],"Plant response rating, Wheat [3]",Corn plant response rating (corn (Zea mays)),"Plant response rating, Corn (corn (Zea mays))",Pigweed plant response rating [4],"Plant response rating, Pigweed [4]",Barnyardgrass plant response rating [5],"Plant response rating, Barnyardgrass [5]",Blackgrass plant response rating [6],"Plant response rating, Blackgrass [6]",Kochia plant response rating (Kochia (Kochia scoparia) [7]),"Plant response rating, Kochia (Kochia (Kochia scoparia) [7])",Ragweed plant response rating [8],"Plant response rating, Ragweed [8]","Foxtail, Giant plant response rating [9]","Plant response rating, Foxtail, Giant [9]",further results
O=C1NCC(c2ccc(Br)cc2)C1C(=O)Nc1cccc(F)c1 (stereo not drawn) [Compound 449],0,20,0,50,0,0,0,0,0,20,30,80,0,20,20,40,0,0,30,80,"Plant response rating, Rice (rice (Oryra sativa)): 0; Plant response rating, Sedge, Umbrella [10]: 0; Plant response rating, Barnyardgrass [11]: 40; Plant response rating, Ducksalad [12]: 98; Plant response rating, Ryegrass, Italian [13]: 20; Ryegrass, Italian plant response rating (0 to 100 scale, 0 is no effect, 100 is complete control) [13]: 0; Plant response rating, Pigweed [14]: 0; Pigweed plant response rating (0 to 100 scale, 0 is no effect, 100 is complete control) [14]: 20; Plant response rating, Barnyardgrass [15]: 50; Barnyardgrass plant response rating (0 to 100 scale, 0 is no effect, 100 is complete control) [15]: 90; Plant response rating, Kochia (Kochia (Kochia scoparia) [16]): 20; Kochia plant response rating (0 to 100 scale, 0 is no effect, 100 is complete control) (Kochia (Kochia scoparia) [16]): 40; Plant response rating, Ragweed [17]: 0; Ragweed plant response rating (0 to 100 scale, 0 is no effect, 100 is complete control) [17]: 0; Plant response rating, Foxtail, Giant [18]: 80; Foxtail, Giant plant response rating (0 to 100 scale, 0 is no effect, 100 is complete control) [18]: 90"
O=C1NCC(c2ccc(Br)cc2)C1C(=O)Nc1ccccc1Cl (stereo not drawn) [Compound 453],0,0,30,40,0,30,0,40,0,0,80,80,0,30,20,30,0,0,80,80,"Plant response rating, Rice (rice (Oryra sativa)): 0; Plant response rating, Sedge, Umbrella [10]: 0; Plant response rating, Barnyardgrass [11]: 30; Plant response rating, Ducksalad [12]: 95; Plant response rating, Ryegrass, Italian [13]: 0; Ryegrass, Italian plant response rating (0 to 100 scale, 0 is no effect, 100 is complete control) [13]: 0; Plant response rating, Pigweed [14]: 20; Pigweed plant response rating (0 to 100 scale, 0 is no effect, 100 is complete control) [14]: 30; Plant response rating, Barnyardgrass [15]: 80; Barnyardgrass plant response rating (0 to 100 scale, 0 is no effect, 100 is complete control) [15]: 90; Plant response rating, Kochia (Kochia (Kochia scoparia) [16]): 0; Kochia plant response rating (0 to 100 scale, 0 is no effect, 100 is complete control) (Kochia (Kochia scoparia) [16]): 30; Plant response rating, Ragweed [17]: 0; Ragweed plant response rating (0 to 100 scale, 0 is no effect, 100 is complete control) [17]: 20; Plant response rating, Foxtail, Giant [18]: 90; Foxtail, Giant plant response rating (0 to 100 scale, 0 is no effect, 100 is complete control) [18]: 90"
